Consider 1 compound from paper PMC7179450, “Primary Human Hepatocytes, But not HepG2 or Balb/c 3T3 Cells, Efficiently Metabolize Salinomycin and Are Resistant to Its Cytotoxicity” (Molecules, 2020).

Read-outs that look alike come from different tables or passages of the source.

In series [1] the test system is HepG2 cells. Put plainly: Biotransformation of SAL and metabolites in HepG2 (LC-MS/MS). Type of series: in vitro ADME, human. As to conditions: HepG2, only after induction with prednisolone, 24 h (Figure 2C). On the procedure:
The HepG2 cell line was purchased from the American Type Culture Collection (ATCC® HB-8065™). The cells were cultured in Minimum Essential Medium Eagle (MEME) (Sigma–Aldrich Co. (St. Louis, MO, USA)). Normal murine embryonic fibroblasts, Balb/c 3T3 clone A31 cell line (gift from Department of Swine Diseases of the National Veterinary Research Institute in Pulawy) was cultured in Dulbecco’s Modified Eagle’s Medium (DMEM) (Invitrogen Corporations (Paisley, UK)). The media were supplemented with 10% BCS (Balb/c 3T3), 10% FBS (HepG2), 1% L-glutamine, and 1% antibiotic solution. The cells were maintained in 75 cm^2 cell culture flasks in humidified incubator at 37 °C, in an atmosphere of 5% CO2. […] The initial cell viability was determined with the trypan blue exclusion test. […]
The medium samples from microplate wells were collected for identifying SAL metabolites and normalized to a cell number. An aliquot of 200 µL of each sample was measured to Eppendorf tube. […] The dry residue was reconstituted in 50% acetonitrile and analyzed with LC-MS/MS. […]
SAL (m/z 773.4 to m/z 431.3) was monitored in multiple reaction monitoring (MRM) modes. […]
The signals for further analysis were selected with the LightSight 2.3 software. […] These MRM transitions (with 20 chromatographic peaks) were then quantified with Multiquant 2.1. software. Quantitative analysis was performed for SAL. […]

Series [2] has as its system primary human hepatocytes (PHH). Put plainly: LDH leakage assay in primary human hepatocytes. Format: cell-based. Conditions: Hepatocyte, mean ± SEM, n = 3, read-out: EC50 (effective concentration). As for the experimental part:
Cryopreserved PHH were purchased from the Primacyt GmbH (Schwerin, Germany). Two different lots were chosen based on CYP activity. The donor was a person. The post-thaw viability was 94.6% for lot HH160531 (used in two repetitions) and 85.0% for lot HH130805. The initial cell viability was determined with the trypan blue exclusion test. The cells were thawed and purified using the Plating and Thawing Kit (Primacyt GmbH). Purified hepatocytes were resuspended in Hepatocyte Plating Medium (Primacyt GmbH) and seeded on collagen-coated 96-well plates at a density of 9 × 10^5 cell/mL and incubated at 37 °C with 5% CO2. After 6 h of incubation, the medium was removed and the cells were washed with PBS. Then Human Hepatocyte Maintenance Medium (HHMM) (Primacyt GmbH) with the studied drugs was added to hepatocytes (100 µL/well). […]
The concentration ranges of the drugs were chosen according to their solubility and their plasma level. […] The cytotoxicity was assessed after 24 and 48 h of exposure of cell lines or after 12 and 24 h exposure of PHH. […]
The integrity of the plasma membrane was assessed through the test of lactate dehydrogenase (LDH) release, which was monitored using a commercially available Cytotoxicity Detection Kit (LDH) (Roche Diagnostics, Basel, Switzerland). […] The absorbance was measured at 492 nm in a microplate reader using a blank as a reference.

Take `CC[C@@H](C(=O)[C@@H](C)[C@@H](O)[C@H](C)[C@@H]1O[C@@H]([C@@H](CC)C(=O)O)CC[C@@H]1C)[C@H]1O[C@]2(C=C[C@@H](O)[C@]3(CC[C@@](C)([C@H]4CC[C@](O)(CC)[C@H](C)O4)O3)O2)[C@H](C)C[C@@H]1C` [SAL, salinomycin]: the “percentage of SAL metabolised” value in series [1] is reported as “ca. 20%”. Further, the EC50 in series [2] (12 h exposure) turned out to be 12.9 ± 3.2 µg/mL; in series [2] (24 h exposure) it was 11.3 ± 0.7 µg/mL.
